According to paper PMC9965520, “An Efficient Peptidomics Screening for Exogenous Substrates and Inhibitory Peptides of the Dipeptidase ACE from Milk Hydrolysate” (Pharmaceutics, 2023):
No end group written: not given here.

Assays:
ACE [1] = biological target: T1, ACE (Oryctolagus cuniculus, UniProt P12822); assay: ACE hydrolysis of synthetic substrate candidates monitored by LC-MS at different incubation times; format: in vitro ADME, rabbit; set-up: ACE (EC 3.4.15.1, 1 unit) from rabbit lungs; purchased Sigma Chemical Co. (St. Louis, MO, USA); host or cells: rabbit lungs (tissue-derived enzyme); conditions: 37 °C; for Substrate content (%) 30min / Substrate content (%) 60min / Substrate content (%) 90min / Substrate content (%) 120min / Substrate content (%) 150min / Substrate content (%) 180min: synthetic peptide with ACE, RS% = As/(As+Ap)x100 from SIC peak areas, LC-MS
T1 sequence (P12822 34-1310): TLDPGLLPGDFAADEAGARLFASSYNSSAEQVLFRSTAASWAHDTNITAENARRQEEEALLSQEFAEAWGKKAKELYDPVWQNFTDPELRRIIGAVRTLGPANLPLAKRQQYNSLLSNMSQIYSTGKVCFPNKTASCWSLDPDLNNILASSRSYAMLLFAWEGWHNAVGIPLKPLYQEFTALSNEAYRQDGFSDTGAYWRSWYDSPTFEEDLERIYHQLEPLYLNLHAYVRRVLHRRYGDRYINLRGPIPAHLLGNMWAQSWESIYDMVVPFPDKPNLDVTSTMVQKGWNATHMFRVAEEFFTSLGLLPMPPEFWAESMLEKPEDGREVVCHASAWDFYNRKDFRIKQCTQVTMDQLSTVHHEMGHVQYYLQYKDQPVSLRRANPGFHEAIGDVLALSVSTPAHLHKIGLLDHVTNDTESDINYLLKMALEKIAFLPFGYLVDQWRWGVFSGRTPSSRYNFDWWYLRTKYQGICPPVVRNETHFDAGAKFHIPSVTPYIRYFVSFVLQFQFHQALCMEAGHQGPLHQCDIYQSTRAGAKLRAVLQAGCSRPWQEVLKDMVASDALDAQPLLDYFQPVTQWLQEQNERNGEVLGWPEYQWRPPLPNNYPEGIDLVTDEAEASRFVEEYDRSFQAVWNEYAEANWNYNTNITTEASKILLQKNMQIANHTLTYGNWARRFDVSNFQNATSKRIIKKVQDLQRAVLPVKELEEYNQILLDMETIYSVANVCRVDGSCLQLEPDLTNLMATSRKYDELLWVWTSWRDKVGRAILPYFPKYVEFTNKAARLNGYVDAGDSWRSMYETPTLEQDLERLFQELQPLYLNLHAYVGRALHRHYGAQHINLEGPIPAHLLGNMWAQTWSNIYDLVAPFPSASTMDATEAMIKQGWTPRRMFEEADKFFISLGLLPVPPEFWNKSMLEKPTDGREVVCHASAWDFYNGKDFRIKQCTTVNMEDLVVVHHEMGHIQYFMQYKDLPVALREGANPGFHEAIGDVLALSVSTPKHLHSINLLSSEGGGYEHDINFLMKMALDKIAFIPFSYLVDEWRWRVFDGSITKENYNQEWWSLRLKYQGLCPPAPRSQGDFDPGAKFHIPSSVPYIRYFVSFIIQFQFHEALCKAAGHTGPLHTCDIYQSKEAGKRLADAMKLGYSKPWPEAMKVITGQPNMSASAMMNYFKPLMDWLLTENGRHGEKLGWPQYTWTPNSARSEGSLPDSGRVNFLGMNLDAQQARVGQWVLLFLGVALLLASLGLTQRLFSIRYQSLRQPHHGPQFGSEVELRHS
Protocol: To confirm the reactivity of the identified peptide candidates towards ACE, the synthetic peptides were individually mixed with ACE and incubated at 37 °C for 3 h. The remaining peptide substrate and the resulting product were analyzed using LC-MS/MS. Meanwhile, the degradation rate of each peptide was monitored every 30 min using LC-MS. The percentage of the remaining substrate (RS%) at each time point was calculated as As/(As + Ap) 100%. In which, As is the selective ion chromatogram (SIC) peak area of remaining substrate and Ap is the peak area of the resulting product. The RS% was further compared with the D/H ratio obtained in Section 2.4.

ACE [2] = biological target: T1, ACE; conditions: Ang-I (1 μg) + peptide (1 μg), ACE 0.05 mU/µL, 200 mM borate buffer, 300 mM NaCl, pH 8.3, 37 °C, 3 h; RA% = AI/(AI+AII)x100, LC-MS SIC
Protocol: To a mixture of Ang-I (1 μg) and peptide substrate (1 μg) in 50 µL of borate buffe (200 mM borate buffer, 300 mM NaCl, pH 8.3), 20 µL of ACE (0.05 mU/µL) was added. The mixture was incubated at 37 °C and monitored using LC-MS/MS at 1, 2, 3, 4, 6, and 10 h. The LC separation was performed on Syncronis C18 column (150 mm × 2.1 mm, 5 µm, Thermo Scientific) and eluted with the mobile phase A (5% ACN and 0.1% FA) and B (95% ACN and 0.1% FA) at a flow rate of 350 µL/min. The elution gradient was programmed as (i) 0–5 min, isocratic elution with 5% B; (ii) 5–20 min, linear gradient from 5% to 55% B; (iii) 20–22 min, linear gradient from 55% to 80% solution B; and finally (iv) 22–30 min, isocratic elution maintained at 80% solution B. The degradation of Ang-I and the formation of Ang-II were analyzed using selective ion chromatogram (SIC) on a triple quadrupole mass analyzer (TSQ, Thermo Scientific). The percentage of the remaining angiotensin I (RA%) at each time point was calculated as AI/(AI + AII) × 100%, where AI is the SIC peak area of remaining Ang-I and AII is the peak area of the resulting Ang-II.

| Substance | Substrate content (%) 30min (ACE [1]) | Substrate content (%) 60min (ACE [1]) | Substrate content (%) 90min (ACE [1]) | Substrate content (%) 120min (ACE [1]) | Substrate content (%) 150min (ACE [1]) | Substrate content (%) 180min (ACE [1]) | Ang-I remained (RA%) on co-incubation with peptide (ACE [2]) | Hydrolysis of synthetic peptide by ACE (result in words) (ACE [1]; synthetic peptide incubated with ACE, 3 h, LC-MS/MS) |
| --- | --- | --- | --- | --- | --- | --- | --- | --- |
| AYFYPELFR [AR-9] | 2.40% | 1.59% | 0.00% | 0.00% | 0.00% | 0.00% | 73.9% |  |
| FFVAPFPEVF [FF-10] | 76.08% | 49.76% | 34.59% | 32.31% | 21.80% | 14.21% |  | partially hydrolyzed |

Second part, the substance after the results:

| Substrate content (%) 30min (ACE [1]) | Substrate content (%) 60min (ACE [1]) | Substrate content (%) 90min (ACE [1]) | Substrate content (%) 120min (ACE [1]) | Substrate content (%) 150min (ACE [1]) | Substrate content (%) 180min (ACE [1]) | Ang-I remained (RA%) on co-incubation with peptide (ACE [2]) | Hydrolysis of synthetic peptide by ACE (result in words) (ACE [1]; synthetic peptide incubated with ACE, 3 h, LC-MS/MS) | Substance |
| --- | --- | --- | --- | --- | --- | --- | --- | --- |
| 58.04% | 37.06% | 22.61% | 11.41% | 7.12% | 6.82% |  |  | LHLPLPLL [LL-8] |
| 7.80% | 7.20% | 6.25% | 5.68% | 2.64% | 1.05% |  |  | LVYPFPGPIHNSL [LL-13] |
| 8.35% | 7.02% | 6.54% | 6.41% | 6.27% | 5.83% |  |  | YVPLGTQ [YQ-7] |
| 2.47% | 0.00% | 0.00% | 0.00% | 0.00% | 0.00% |  |  | HLPLPLLQSW [HW-10] |
